In patent US10300066B2, “Polyfluorinated compounds acting as bruton tyrosine kinase inhibitors” (ZHEJIANG DTRM BIOPHARMA CO. LTD., priority 2014, dated 2019):

Tests used:
[1] = 28-day toxicokinetic (TK) study in dogs; format: in vivo, dog; conditions: for AUC: dog, in vivo, 15 mg/kg
[2] = Toxicity and TK studies, 28-day rat and dog; conditions: 28-day rat and dog studies
Text: Toxicity and toxicokinetic (TK) studies of the compounds can be performed by well known methods.

[3] = 28-day toxicokinetic (TK) study in rats; format: in vivo, rat; conditions: for AUC: rat, in vivo, read-out: AUC (area under the curve)
[4] = 45 mg/kg/day, Study Day 1, Female
[5] = 100 mg/kg, Study Day 28, Female

In the case of C=CC(=O)N1CC[C@@H](n2nc(-c3ccc(Oc4c(F)c(F)cc(F)c4F)cc3F)c3c(N)ncnc32)C1 [Compound 45, 1-((R)-3-(4-amino-3-(2-fluoro-4-(2,3,5,6-tetrafluorophenoxy)phenyl)-1H-pyrazolo[3,4-d]pyrimidin-1-yl)pyrrolidin-1-yl)prop-2-en-1-one], the “AUC compared to ibrutinib” value [1] is reported as “significantly higher”, the AUC0-24 h [1, 4] is reported as 6220 ± 3000 ng·h/mL and the Cmax [1, 4] is reported as 1220 ± 431 ng/mL. For the same compound, the Cmax ([1]; 150 mg/kg/day, Study Day 1, Male) was 2460 ± 858 ng/mL, the AUC ([1]; female) was 2930 ng·h/mL and the AUC ([1]; male) was 3550 ng·h/mL. For the same compound, the “Bioavailability compared to ibrutinib” value [2] was “superior bioavailability”, the “Drug exposure, Day 1 versus Day 28” value [2] was “no significant difference” and the “Drug exposure, male versus female” value [2] was “no significant difference”. For the same compound, the “Pharmacokinetics compared to ibrutinib” value [2] was “excellent pharmacokinetics”, the “Toxicity compared to ibrutinib” value [2] was “low toxicity” and the “AUC compared to ibrutinib” value [3] was “significantly higher”. The Cmax ([3]; 40 mg/kg, Study Day 1, Female) was 2660 ng/mL, the Cmax ([3]; 40 mg/kg, Study Day 28, Male) was 2090 ng/mL and the AUC0-24 h [3, 5] was 29600 ng·h/mL. For the same compound, the Cmax [3, 5] was 3830 ng/mL, the AUC0-24 h ([3]; 100 mg/kg, Study Day 28, Male) was 30300 ng·h/mL and the Cmax ([3]; 200 mg/kg, Study Day 28, Male) was 4540 ng/mL. It also gave an AUC ([3]; 40 mg/kg, female) of 17300 ng·h/mL and an AUC ([3]; 40 mg/kg, male) of 13700 ng·h/mL.
